Source: US9451775B2, “Heterocyclic compounds as pesticides” (Bayer Intellectual Property GmbH, priority 2008, dated 2016)

Assays:
[1] = tested on: greenhouse red spidermite (Tetranychus urticae); assay: Tetranychus test, OP-resistant (spray treatment); format: in vivo; details: application rate of 100 g/ha; sprayed bean leaf discs
Procedure: Tetranychus Test, OP-Resistant (Spray Treatment)
• Solvents: 78.0 parts by weight of acetone • 1.5 parts by weight of dimethylformamide • Emulsifier: 0.5 part by weight of alkylaryl polyglycol ether
To produce a suitable preparation of active compound, 1 part by weight of active compound is mixed with the stated amounts of solvent and emulsifier, and the concentrate is diluted with emulsifier-containing water to the desired concentration.
Discs of the leaves of beans (Phaseolus vulgaris) which are infested by all stages of the greenhouse red spidermite (Tetranychus urticae) are sprayed with an active compound preparation of the desired concentration.
After the desired period of time, the effect in % is determined. 100% means that all spidermites have been killed; 0% means that none of the spidermites have been killed.

[2] = logP determination by HPLC (formic acid method); format: physicochemical; details: reversed-phase HPLC column (C18), pH 3.4, HPLC on reversed-phase column (C18), acidic range (pH 3.4), 55° C.; read-out: logP (HCOOH)
Method in brief: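 Reversed-phase C18 HPLC at 55 °C, pH 3.4, with a 4.25 min gradient from 10% to 95% acetonitrile (formic acid-modified water/acetonitrile phases). logP was derived from retention time by linear interpolation between unbranched alkan-2-ones (C3-C16) of known logP.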

[3] = tested on: green peach aphid (Myzus persicae); assay: Myzus test (spray treatment); format: in vivo; details: foliar, application rate of 500 g/ha, sprayed Chinese cabbage leaf discs, read-out: activity (effect in %, aphids killed)
Method in brief: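 Chinese cabbage leaf discs heavily infested with all stages of the aphid are sprayed with compound formulated in acetone/dimethylformamide with alkylaryl polyglycol ether emulsifier, diluted in emulsifier-containing water. After a set period, kill is scored in %: 100% all aphids dead, 0% none.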

Boophilus microplus = Boophilus microplus test (injection); format: in vivo; details: application rate of 20 μg/animal; injected into the abdomen
Procedure: Boophilus microplus Test (Injection) • Solvent: Dimethyl sulphoxide To produce a suitable preparation of active compound, 1 part by weight of active compound is mixed with the stated amounts of solvent, and the concentrate is diluted with water to the desired concentration. The solution of active compound is injected into the abdomen (Boophilus microplus), and the animals are transferred into dishes and stored in a climatized room. The activity is checked by examination for deposition of fertile eggs, After the desired period of time, the effect in % is determined. 100% means that none of the ticks has laid fertile eggs.

SMILES | chromatographic logP [2] | activity (effect in %, spidermites killed) [1] [%] | pest or weed control at 500 g/ha [3] [%] | activity (effect in %, deposition of fertile eggs) (Boophilus microplus) [%]
FC(F)(F)c1cccc(-c2cnc(-c3cccnc3)s2)n1 [Ex. No. 49] | 2.81 | – | ≥ 80 | ≥ 80
COCCNC(=O)n1ccc(-c2sc(-c3cccnc3)nc2C)n1 [compound 126] | 1.87 | – | ≥ 80 | –
Cc1nc(-c2cccnc2)sc1-c1ccn(C(=O)NCC2CC2)n1 [compound 127] | 2.57 | – | ≥ 80 | –
Cc1nc(-c2cccnc2)sc1-c1ccn(C(=O)NCC(F)(F)F)n1 [compound 128] | 2.38 | – | ≥ 80 | –
CSCCNC(=O)n1ccc(-c2sc(-c3cccnc3)nc2C)n1 [compound 129] | 2.34 | – | ≥ 80 | –
Cc1nc(-c2cccnc2)sc1-c1ccn(C(=O)NC(C)(C)C(C)C)n1 [compound 130] | 4.17 | – | ≥ 80 | –
CCC(CC#N)NC(=O)n1ccc(-c2sc(-c3cccnc3)nc2C)n1 (stereo not drawn) [compound 131] | 2.14 | – | ≥ 80 | –
CCCNC(=O)n1ccc(-c2sc(-c3cccnc3)nc2C)n1 [compound 132] | 2.46 | – | ≥ 80 | –
COC(C)(C)CNC(=O)n1ccc(-c2sc(-c3cccnc3)nc2C)n1 [compound 133] | 2.53 | – | ≥ 80 | –
C#CC(C)(C)NC(=O)n1ccc(-c2sc(-c3cccnc3)nc2C)n1 [compound 134] | 2.69 | – | ≥ 80 | –
COCCCNC(=S)n1ccc(-c2sc(-c3cccnc3)nc2C)n1 [compound 135] | 3.28 | – | ≥ 80 | –
CNC(=S)n1ccc(-c2sc(-c3cccnc3)nc2C)n1 [compound 137] | 2.65 | – | ≥ 80 | –
Cc1nc(-c2cccnc2)sc1-c1nc(-c2ccncc2)no1 [compound 138] | 2.19 | – | ≥ 80 | –
Cc1cccc(-c2noc(-c3sc(-c4cccnc4)nc3C)n2)n1 [compound 139] | 2.61 | – | ≥ 80 | –
Cc1nc(-c2cccnc2)sc1-c1ccn(C(=S)NCC(F)(F)F)n1 [compound 141] | 3.42 | – | ≥ 80 | –
Cc1nc(-c2cccnc2)sc1-c1ccnc(C(F)(F)C(F)(F)F)n1 [compound 142] | 3.35 | – | ≥ 80 | –
Cc1nc(-c2cccnc2)sc1-c1ccn(C(=S)NCC(C)C)n1 [compound 143] | 4.28 | – | ≥ 80 | –
Cc1nc(-c2cccnc2)sc1-c1ccc(C(F)(F)F)nc1 [compound 144] | 2.72 | – | ≥ 80 | –
Cc1noc(Cn2ccc(-c3sc(-c4cccnc4)nc3C)n2)n1 [compound 145] | 1.71 | – | ≥ 80 | –
c1cncc(-c2ncc(-c3cccc(C4=NOCCO4)n3)s2)c1 [compound 148] | 1.59 | – | ≥ 80 | –
Cc1nc(-c2cncnc2)sc1-c1cccc(-c2ncccn2)n1 [compound 150] | 1.76 | – | ≥ 80 | –
c1cnc(-c2cccc(-c3cnc(-c4cncnc4)s3)n2)nc1 [compound 151] | 1.54 | – | ≥ 80 | –
Cc1nc(-c2cncc(F)c2)sc1-c1cccc(-c2ncccn2)n1 [compound 152] | 2.43 | – | ≥ 80 | –
Fc1cncc(-c2ncc(-c3cccc(-c4ncccn4)n3)s2)c1 [compound 153] | 2.11 | – | ≥ 80 | –
c1cncc(-c2nnc(-c3ccncc3)s2)c1 [compound 158] | 1.41 | – | ≥ 80 | –
FC(F)(F)Oc1cccc(-c2nnc(-c3cccnc3)s2)c1 [compound 159] | 3.16 | – | ≥ 80 | –
c1cncc(-c2nnc(-c3cc[nH]n3)s2)c1 [compound 162] | 0.84 | – | ≥ 80 | –
c1cncc(-c2nnc(-c3cccnc3)s2)c1 [compound 163] | 1.07 | – | ≥ 80 | –
c1cnc(-c2cccc(-c3nnc(-c4cncnc4)s3)n2)nc1 [compound 164] | 1.39 | – | ≥ 80 | –
Fc1cncc(-c2nnc(-c3cccc(-c4ncccn4)n3)s2)c1 [compound 165] | 1.91 | – | ≥ 80 | –

Now from value to compound, other results behind:

chromatographic logP [2] | SMILES | activity (effect in %, spidermites killed) [1] [%] | pest or weed control at 500 g/ha [3] [%] | activity (effect in %, deposition of fertile eggs) (Boophilus microplus) [%]
1.69 | Cc1nc(-c2cccnc2)sc1-c1ccn(Cc2ccccn2)n1 [Ex. No. 27] | ≥ 80 | ≥ 80 | –
4.41 | Cc1nc(-c2cccnc2)sc1-c1ccn(C(=S)NC(C)c2ccccc2)n1 (stereo not drawn) [compound 136] | – | ≥ 80 | –
1.43 | Cc1nc(-c2cccnc2)sc1-c1ccn(Cc2ncccn2)n1 [compound 146] | – | ≥ 80 | –
1.24 | c1cnc(Cn2ccc(-c3cnc(-c4cccnc4)s3)n2)nc1 [compound 147] | – | ≥ 80 | –
1.85 | c1cncc(-c2ncc(-c3cccc(-n4ccnn4)n3)s2)c1 [compound 149] | – | ≥ 80 | –
2.13 | Cc1nc(-c2cccnc2)sc1-c1cccc(-n2ccnn2)n1 [compound 154] | – | ≥ 80 | –
1.89 | c1cncc(-c2ncc(-c3cccc(-n4nccn4)n3)s2)c1 [compound 155] | – | ≥ 80 | –
2.65 | Cc1nc(-c2cccnc2)sc1-c1cccc(-n2nc(C(F)(F)F)n(C)c2=O)n1 [compound 156] | – | ≥ 80 | –
2.35 | Cn1c(C(F)(F)F)nn(-c2cccc(-c3cnc(-c4cccnc4)s3)n2)c1=O [compound 157] | – | ≥ 80 | –
1.44 | c1cnc(-n2ccc(-c3nnc(-c4cccnc4)s3)n2)nc1 [compound 160] | – | ≥ 80 | –
1.13 | c1cnc(-n2nccc2-c2nnc(-c3cccnc3)s2)nc1 [compound 161] | – | ≥ 80 | –
0.91 | Cn1nc(-c2cccnc2)cc1-c1ccn(Cc2ccccn2)n1 [compound 166] | – | ≥ 80 | –
0.83 | COCc1nccc(-c2cc(-c3cccnc3)nn2C)n1 [compound 167] | – | ≥ 80 | –
0.95 | Cn1nc(-c2cccnc2)cc1C1=NN(c2ncccn2)CCO1 [compound 168] | – | ≥ 80 | –
1.64 | Cn1nc(-c2cccnc2)cc1-c1ccn(-c2ccccn2)n1 [compound 169] | – | ≥ 80 | –
0.42 | Cn1nc(-c2cccnc2)cc1-c1cc[nH]n1 [compound 170] | – | ≥ 80 | –
0.87 | Cn1nc(-c2cccnc2)cc1-c1ccnc(-c2ccccn2)n1 [compound 171] | – | ≥ 80 | –
